{
  "source": "patent US4235666A",
  "about": "“1,2,3,4,4a,9a-Hexahydro-9,10-anthracene-dione, its preparation and its application to the delignification of lignocellulosic materials” (Produits Chimiques Ugine Kuhlmann, priority 1978, dated 1980)",
  "parameters_in_all_cases": "species or system moorland maritime pine",
  "key": {"[1]": {"assay": "Caustic soda cooking (delignification) with adjuvant", "details": "for Kappa index: NFT 12018", "description": "Shavings of moorland maritime pine are subjected to heating in an autoclave with a caustic soda liquor. The cooking conditions are as follows:\nAmount of caustic soda: 22% by weight with respect to the dry vegetable material.\nRatio of liquor/vegetable material: 4\nTemperature of cooking: 170° C.\nTime in which the cooking temperature\nTime of cooking: 90 minutes\nAmount of adjuvant: 0-0.1%-0.5%-1% by weight with respect to the dry vegetable material\nAfter cooking, the pulps obtained are washed, disintegrated on a 3 mm grid (Vewerk grader or sorter).\nThe crude yield and the yield of sorted pulp are determined on the pulps, and the Kappa index according to French standard NFT 12018 are determined on the raw pulps.\nThe pH and the consumption of caustic soda are determined on the liquors after cooking.\nA comparative test with 0.5% of anthraquinone was carried out under the same operational conditions as in Example 9."}, "[2]": {"assay": "Mechanical characteristics of raw pulps from caustic soda cooking, refined at 40° SR", "details": "for Index of rupture / Index of tearing / Length of rupture / Resistance to bending: 0.5% adjuvant, 40° SR", "description": "(§1) The raw pulps for reference and those obtained with 0.5% of adjuvant in the cooking are refined in a Jokro mill.\n(§2) Sheets for physical tests are produced on a Rapid Kothen mold. Their weight per m^2 is about 70 g.\n(§3) The following mechanical characteristics are determined:\n(§4) Length of break: AFNOR NFQ 03004 standard\n(§5) Index of splitting or cracking: AFNOR NFQ 03014 standard\n(§6) Tearing index: AFNOR NFQ 03011 standard\n(§7) Resistance to bending or folding: AFNOR NFQ 03001 standard\nThe mechanical characteristics of the raw or unwashed pulps obtained after heating with caustic soda in the presence of 0.5% of adjuvant are compared with those of a conventional Kraft pulp (Table IV).\nMechanical characteristics of raw pulps refined at\n40° SR caustic soda cooking with 0.5% of adjuvant"}, "[3]": {"assay": "Kraft cooking (caustic soda-sulfuric liquor) with adjuvant", "description": "Shavings from moorland maritime pine are subjected to cooking in an autoclave with a caustic soda-sulfuric liquor under the following conditions:\nProportion of active alkali: 22% by weight with respect to the dry vegetable material,\nSulfidity: 25% with respect to the active alkali,\nRatio liquor/vegetable material: 4\nTemperature of heating: 170° C.\nTime taken to arrive at the heating temperature: 90 min.,\nTime of heating: 120 min.\nAmount of adjuvant: 0-0.1%-0.5%-1% by weight with respect to the dry vegatable material.\nAfter cooking, the same operations as those described in Example 9 are carried out on the pulps and the cooking liquors. […]"}, "[4]": {"assay": "Mechanical characteristics of crude pulps from Kraft cooking, refined at 40° SR", "details": "for Index of rupture / Index of tearing / Length of rupture / Resistance to bending: 0.5% adjuvant, 40° SR", "description": "as §1, §2, §3, §4, §5, §6, §7\nAfter cooking, the same operations as those described in Example 9 are carried out on the pulps and the cooking liquors.\nA comparative test with 0.5% of anthraquinone is effected under the same operational conditions as in Example 11. The mechanical characteristics of the pulps obtained are compared with those of a Kraft pulp for reference (Table VII).\nMechanical characteristics of the crude pulps refined at\n40° SR Kraft cooking with 0.5% of adjuvant"}},
  "note": "“Also recorded” adds a separate entry of the source. Like-named read-outs stand apart in the source and are kept apart here.",
  "data": [
    {"smiles": "O=C1c2ccccc2C(=O)c2ccccc21", "note": "[Anthraquinone, anthraquinone, reference compound]", "values": [
      {"measurement": "% Caustic soda consumed/wood", "setting": "[1]; 0.5% adjuvant", "result": 17.5, "unit": "%"},
      {"measurement": "Classified yield", "setting": "[1]; 0.5% adjuvant", "result": 46.2, "unit": "%"},
      {"measurement": "Crude yield", "setting": "[1]; 0.5% adjuvant", "result": 46.8, "unit": "%"},
      {"measurement": "Kappa index", "setting": "[1]; 0.5% adjuvant", "result": 32.2},
      {"measurement": "Index of rupture", "setting": "[2]", "result": 5.07},
      {"measurement": "Index of tearing", "setting": "[2]", "result": 813},
      {"measurement": "Length of rupture", "setting": "[2]", "result": "7,230 m"},
      {"measurement": "Resistance to bending", "setting": "[2]", "result": 945},
      {"measurement": "% Effective alkali consumed/wood", "setting": "[3]; 0.5% adjuvant", "result": 17.4, "unit": "%"},
      {"measurement": "Classified yield", "setting": "[3]; 0.5% adjuvant", "result": 43.8, "unit": "%"},
      {"measurement": "Crude yield", "setting": "[3]; 0.5% adjuvant", "result": 44, "unit": "%"},
      {"measurement": "Kappa index", "setting": "[3]; 0.5% adjuvant", "result": 24.3},
      {"measurement": "mechanical characteristics / degradation of pulps", "setting": "[4]; Kraft cooking", "result": "inferior mechanical characteristics; also recorded: a relatively large degradation is observed"},
      {"measurement": "Index of rupture", "setting": "[4]; Kraft cooking", "result": 4.48},
      {"measurement": "Index of tearing", "setting": "[4]; Kraft cooking", "result": 808},
      {"measurement": "Length of rupture", "setting": "[4]; Kraft cooking", "result": "5,850 m"},
      {"measurement": "Resistance to bending", "setting": "[4]; Kraft cooking", "result": 905}
    ]},
    {"smiles": "O=C1c2ccccc2C(=O)C2CCCCC12", "note": "(stereo not drawn) [6 HAD, 1,2,3,4,4a,9a-hexahydro-9,10-anthracene-dione]", "values": [
      {"measurement": "effect on delignification", "setting": "[1]", "result": "has the same effect as the anthraquinone"},
      {"measurement": "% Caustic soda consumed/wood", "setting": "[1]; 0.1% adjuvant", "result": 16.9, "unit": "%"},
      {"measurement": "Classified yield", "setting": "[1]; 0.1% adjuvant", "result": 45.7, "unit": "%"},
      {"measurement": "Crude yield", "setting": "[1]; 0.1% adjuvant", "result": 46.2, "unit": "%"},
      {"measurement": "Kappa index", "setting": "[1]; 0.1% adjuvant", "result": 51.7},
      {"measurement": "% Caustic soda consumed/wood", "setting": "[1]; 0.5% adjuvant", "result": 17.9, "unit": "%"},
      {"measurement": "Classified yield", "setting": "[1]; 0.5% adjuvant", "result": 45.5, "unit": "%"},
      {"measurement": "Crude yield", "setting": "[1]; 0.5% adjuvant", "result": 45.8, "unit": "%"},
      {"measurement": "Kappa index", "setting": "[1]; 0.5% adjuvant", "result": 33.4},
      {"measurement": "% Caustic soda consumed/wood", "setting": "[1]; 1% adjuvant", "result": 18.1, "unit": "%"},
      {"measurement": "Classified yield", "setting": "[1]; 1% adjuvant", "result": 45.5, "unit": "%"},
      {"measurement": "Crude yield", "setting": "[1]; 1% adjuvant", "result": 45.7, "unit": "%"},
      {"measurement": "Kappa index", "setting": "[1]; 1% adjuvant", "result": 28.0},
      {"measurement": "effect on delignification", "setting": "[1]; listed as 1,2,3,4,4a,9a-hdxahydro9,10-anthracene-dione", "result": "accelerates the delignification and makes it more selective"},
      {"measurement": "Index of rupture", "setting": "[2]", "result": 4.82},
      {"measurement": "Index of tearing", "setting": "[2]", "result": 922},
      {"measurement": "Length of rupture", "setting": "[2]", "result": "7,030 m"},
      {"measurement": "Resistance to bending", "setting": "[2]", "result": "1,846"},
      {"measurement": "quality / mechanical properties of pulps", "setting": "[2]; compared with conventional Kraft pulp", "result": "very near to the quality of the conventional Kraft pulp; also recorded: mechanical properties similar to those of Kraft pulps with a similar yield and Kappa indexes"},
      {"measurement": "effect on delignification, Kappa index and yield", "setting": "[3]", "result": "enables the Kappa index of the pulps to be appreciably lowered without alteration of the mechanical properties; also recorded: With identical Kappa indexes, yields greater than those of the Kraft process referred to can be obtained; also recorded: increases the kinetics and the selectivity of the delignification; also recorded: decrease of the Kappa index of the pulps without reduction of the yield of the cooking"},
      {"measurement": "% Effective alkali consumed/wood", "setting": "[3]; 0.1% adjuvant", "result": 17.5, "unit": "%"},
      {"measurement": "Classified yield", "setting": "[3]; 0.1% adjuvant", "result": 44.3, "unit": "%"},
      {"measurement": "Crude yield", "setting": "[3]; 0.1% adjuvant", "result": 44.6, "unit": "%"},
      {"measurement": "Kappa index", "setting": "[3]; 0.1% adjuvant", "result": 27.4},
      {"measurement": "% Effective alkali consumed/wood", "setting": "[3]; 0.5% adjuvant", "result": 17.9, "unit": "%"},
      {"measurement": "Classified yield", "setting": "[3]; 0.5% adjuvant", "result": 44.5, "unit": "%"},
      {"measurement": "Crude yield", "setting": "[3]; 0.5% adjuvant", "result": 44.8, "unit": "%"},
      {"measurement": "Kappa index", "setting": "[3]; 0.5% adjuvant", "result": 24.2},
      {"measurement": "% Effective alkali consumed/wood", "setting": "[3]; 1% adjuvant", "result": 18.2, "unit": "%"},
      {"measurement": "Classified yield", "setting": "[3]; 1% adjuvant", "result": 44.3, "unit": "%"},
      {"measurement": "Crude yield", "setting": "[3]; 1% adjuvant", "result": 44.4, "unit": "%"},
      {"measurement": "Kappa index", "setting": "[3]; 1% adjuvant", "result": 22.0},
      {"measurement": "mechanical characteristics / degradation of pulps", "setting": "[4]", "result": "more favorable than that of anthraquinone"},
      {"measurement": "Index of rupture", "setting": "[4]; Kraft cooking", "result": 5.55},
      {"measurement": "Index of tearing", "setting": "[4]; Kraft cooking", "result": 847},
      {"measurement": "Length of rupture", "setting": "[4]; Kraft cooking", "result": "7,000 m"},
      {"measurement": "Resistance to bending", "setting": "[4]; Kraft cooking", "result": "1,917"}
    ]}
  ]
}
